Earlier results on one compound are cited in paper PMC2866172 (Journal of medicinal chemistry, 2010).

This data set relates to MTB enoyl-ACP reductase InhA. To be noted: on MTB enoyl-ACP reductase InhA; cited from earlier work.

Take `NC(=O)C1=CN([C@@H]2O[C@H](COP(=O)(O)OP(=O)(O)OC[C@H]3O[C@@H](n4cnc5c(N)ncnc54)[C@H](O)[C@@H]3O)[C@@H](O)[C@H]2O)C=C[C@@H]1C(=O)c1ccncc1` [INH-NAD adduct]: the Residence time is 60 min.
